SMILES strings stand for the structures. Entries after “also recorded” stand apart in the source; their conditions may differ.

One assay deals with T1, human GLUT2 (Homo sapiens, UniProt P11168).
T1 construct: Full length DNA was subcloned into pFastBac1 (Life Technologies) vector with a N-terminal hexahistidine tag; hexahistidine (N); made in house; host or cells: Sf21 insect cells (baculovirus, pFastBac1)
T1 sequence (P11168 1-524): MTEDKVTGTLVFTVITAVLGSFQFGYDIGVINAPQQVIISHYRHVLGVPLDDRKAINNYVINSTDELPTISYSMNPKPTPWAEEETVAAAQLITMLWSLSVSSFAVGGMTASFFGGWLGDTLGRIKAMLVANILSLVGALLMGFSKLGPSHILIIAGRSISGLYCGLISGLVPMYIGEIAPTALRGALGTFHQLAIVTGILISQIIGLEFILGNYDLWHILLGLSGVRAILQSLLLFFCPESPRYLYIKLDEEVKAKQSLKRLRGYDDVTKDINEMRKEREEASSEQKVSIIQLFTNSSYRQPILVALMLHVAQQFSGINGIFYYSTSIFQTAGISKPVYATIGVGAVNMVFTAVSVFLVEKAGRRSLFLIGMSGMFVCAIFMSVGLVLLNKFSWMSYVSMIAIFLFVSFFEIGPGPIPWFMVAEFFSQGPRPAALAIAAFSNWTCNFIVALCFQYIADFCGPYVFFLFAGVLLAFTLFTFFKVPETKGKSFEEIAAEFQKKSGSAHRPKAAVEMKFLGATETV
The experiment in a line: Glucose or fructose entrance counter-flow transport in GLUT2 proteoliposomes. The settings on record: 2 mM compound. It counts as biochemical. On the procedure:
(§1) cDNAs of GLUT1, 3, 4 and 5 were purchased from Open Biosystems (GE Healthcare). cDNAs of GLUT2 was a gift from Prof. Graeme Bell at University of Chicago. Full length DNA was subcloned into pFastBac1 (Life Technologies) vector with a N-terminal hexahistidine tag. Bacmids were generated in DH10Bac E. coli cells (Life Technologies). Baculoviruses were produced using Cellfectin II Reagent and amplified in Sf21 insect cells (Life Technologies). Cells were maintained at 26° C., and P1 (10^6 pfu/mL) was collected from infected cells after 72 hours. SF21 cells were propagated in HyClone SFX-Insect media (GE Healthcare), supplemented with 5% fetal bovine serum (Biowest), 4.8 mM glutamine, antibiotics (100 units/mL Penicillin G and 100 μg/mL streptomycin sulfate) and amphotericin B (2.5 μg/mL). […]
(§2) For the entrance counterflow transport in proteoliposomes, the assay was started by the addition of 5 μL proteoliposomes solution (OD600 nm ˜30) to 200 μL, assay solution, containing 10 μM ^14C-radiolabeled glucose (for GLUT1 wild-type or F379H mutant and GLUT2-4) or fructose (for GLUT5 wild-type or H387F mutant and GLUT2) (Moravek Biochemicals) in 100 mM KPi buffer at pH 7.5. After one minute (or different specified time points when the time-dependent counter-flow transport activity was measured), the transport was stopped with ice-chilled quench buffer [0.1 M KPi (pH 5.5) and 0.1 M lithium chloride]. […]

A further assay concerns the target T2, human GLUT4 (Homo sapiens, UniProt P14672).
T2 construct: Full length DNA was subcloned into pFastBac1 (Life Technologies) vector with a N-terminal hexahistidine tag; hexahistidine (N); made in house; host or cells: Sf21 insect cells (baculovirus, pFastBac1)
T2 sequence (P14672 1-509): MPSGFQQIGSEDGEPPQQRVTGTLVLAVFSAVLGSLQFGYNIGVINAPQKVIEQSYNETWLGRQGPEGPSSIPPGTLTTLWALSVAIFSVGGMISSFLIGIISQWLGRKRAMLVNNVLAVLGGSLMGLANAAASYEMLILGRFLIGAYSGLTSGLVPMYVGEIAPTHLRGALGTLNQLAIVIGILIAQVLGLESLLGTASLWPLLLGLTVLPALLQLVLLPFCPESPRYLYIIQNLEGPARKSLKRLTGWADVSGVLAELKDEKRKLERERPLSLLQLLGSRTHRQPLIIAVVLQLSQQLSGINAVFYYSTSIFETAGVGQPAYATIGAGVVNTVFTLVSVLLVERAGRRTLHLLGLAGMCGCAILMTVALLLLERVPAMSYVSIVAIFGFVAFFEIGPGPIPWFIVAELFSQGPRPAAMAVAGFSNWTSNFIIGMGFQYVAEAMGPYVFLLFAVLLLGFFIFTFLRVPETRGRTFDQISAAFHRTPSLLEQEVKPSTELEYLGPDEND
Nature of the assay: Glucose entrance counter-flow transport in GLUT4 proteoliposomes. It counts as biochemical. The settings on record: 2 mM compound. On the procedure:
as §1, §2

On to `CS(=O)(=O)c1ccc(Nc2ccc3c(c2)OCO3)c([N+](=O)[O-])c1` [MSNBA, N-[4-(methylsulfonyl)-2-nitrophenyl]-1,3-benzodioxol-5-amine], for which, at human GLUT2 (fructose as substrate), the “effect on GLUT2 fructose transport” value is “did not affect; also recorded: did not influence”. Also, at human GLUT2 (glucose as substrate), the “effect on GLUT2 glucose transport” value is reported as “did not influence; also recorded: did not affect”. For the same compound, the “effect on GLUT4 glucose transport” value at human GLUT4 was “did not affect; also recorded: did not influence”.
